According to article PMC5694528, “Human mass balance study and metabolite profiling of ^14C-niraparib, a novel poly(ADP-Ribose) polymerase (PARP)-1 and PARP-2 inhibitor, in patients with advanced cancer” (Investigational New Drugs, 2017):
Where two headings read alike, the source gives them in different places.

Key:
[1] = Metabolite profiling in plasma, urine and faeces by LC-LSC-MSn; assay type: in vivo, human; conditions: for Amount excreted in urine (0–144 h) / Amount excreted total, urine and faeces (0–144 h) / Amount excreted in faeces (0–144 h): % of administered dose; for Plasma exposure: relative AUC0-168h (% of AUC0-168h from total 14C): 0-168 h
Procedure: Metabolite profiling was divided into two parts: metabolite screening and identification, and metabolite quantification. During the first part, inter-patient pooled samples were analysed to screen for the presence of metabolites. Afterwards, individual patient samples or within-patient pooled samples (depending on the matrix) were analysed and metabolites found during the screening phase were quantified. Plasma, urine and faeces samples were selected both for screening and quantification. Three time points were selected for screening of plasma samples. Besides the pre-dose, a sample around the tmax was chosen, because these samples contained the highest amount of radioactivity. It was also of interest to select a sample in which the amount of radioactivity was much higher than the amount of parent compound, because this is indicative of the presence of metabolites. Consequently, 4 h and 48 h were selected and screened for metabolites. Individual patient samples from 0 […] and 168 h were analysed and metabolites in these samples were quantified. All urine samples were pooled within patients, and afterwards these samples were pooled between patients. […] The same procedure was applied for faeces samples. Again, 24 h-interval pools were made, first within patients and then between patients. The latter were used for metabolite screening, whereas the first were analysed afterwards, during the quantification step. […] Plasma samples (pre-dose, 4 h and 48 h) were pooled by equal volumes. In addition, the individual samples (pre-dose, 4 h, 12 h, 24 h, 48 h, 72 h and 168 h) were analysed. Plasma samples were extracted once with acetonitrile-methanol (50:50, v/v). […] An aliquot of the clear supernatant was analysed for total radioactivity to determine extraction efficiency. The remaining supernatant was used for analysis by LC-MS^n in combination with off-line LSC (LC-LSC-MS^n). Urine samples were first pooled within patients. […] These samples were analysed without pre-treatment. […] Faeces homogenate samples were extracted once with 0.1% formic acid in acetonitrile. […] An aliquot of the clear supernatant was analysed for total radioactivity to determine extraction recovery. The remaining supernatant was used for LC-LSC-MS^n analysis. Samples were analysed by LC (Shimadzu, Kyoto, Japan) coupled to a linear ion trap mass spectrometer (Thermo Electron, Waltham, MA, USA) in combination with off-line LSC (LC-Linear Ion Trap LTQ XL Mass Spectrometry (MS)-LSC). To separate known and unknown metabolites, an HPLC gradient was applied. A flow rate of 1 mL/min was maintained during the following 50-min gradient: starting at 10%B and increasing to 36.25%B over 35 min, then to 90%B in 12 min. This was held for 2 min and then it was reverted back to the initial conditions of 10%B at 49 min. Mobile phase A consisted of 20 mM ammonium acetate in water and mobile phase B consisted of 0.1% formic acid in acetonitrile. Structural information on niraparib metabolites was obtained using Data Dependent Acquisition. Accurate mass measurements were performed to confirm the chemical structures of the metabolites. These measurements were performed on an Ultimate 3000 LC (Dionex) coupled to an LTQ Orbitrap XL MS (Thermo Electron, Waltham). The same gradient composition was applied. […] The metabolite profiles of ^14C-niraparib-derived radioactivity were determined for selected aliquots of extracts of plasma, urine and faecal homogenates using LC-MS/MS, fractionation and off-line LSC. After pre-treatment, samples were injected onto a Phenomenex Synergi Hydro-RP (250 × 4.6 mm, 4 μm) column. Data Dependent Acquisition was applied, causing the detection and fragmentation of the most abundant ions. Besides this, a parent list with possible metabolites was constructed, meaning that apart from the most abundant ions, also the ones with the masses in this parent list were further fragmentised for which MS^2 and MS^3 spectra were obtained. […]

[2] = Plasma pharmacokinetics of niraparib and M1 by validated LC-MS/MS after a single oral 300 mg dose of 14C-niraparib; assay type: in vivo; conditions: human; for AUC(0-inf): read-out: AUC0-inf (mean); for AUC(0-t): read-out: AUC0-last (mean); for half-life: read-out: t1/2 (mean) (converted); for Tmax: read-out: tmax (median)
Procedure: Dose reductions were allowed twice. […] All patients provided written informed consent. Blood sampling was done at the following time points: pre-dose, 1, 1.5, 2, 3, 4, 6, 9 and 12 hours (h) after administration and in the morning of Day 2, 3, 4, 5, 8, 11, 15 and 22. For each time point, a 10 mL K2EDTA blood collection tube was used (Vacutainer®, Becton, Dickinson and Company, Franklin Lakes, NJ, USA) and blood was drawn via a peripheral line. […] Separate aliquots were made for radioactivity measurements as well as LC-MS/MS and metabolite profiling experiments. All samples were stored at −80 °C. […] Gradient elution was applied using 20 mM ammonium acetate in water (mobile phase A) and 0.1% formic acid in acetonitrile-methanol (50:50, v/v; mobile phase B). […] Quality control samples were prepared and analysed together with the study samples. […] Analysis was done by a non-compartmental method using WinNonlin Phoenix Version 6.2.1 or higher (Pharsight Corporation, St. Louis, Missouri, USA).

[3] = Safety assessment (NCI CTCAE) in the mass balance study
Source text: The National Cancer Institute Common Terminology Criteria for Adverse Events (NCI CTCAE) grading system was used to describe the severity of the adverse events (AEs) that occurred. Haematology, blood chemistry and vital signs were also part of the safety assessment.

[4] = tested on: recurrent, platinum sensitive, ovarian, fallopian tube, or primary peritoneal cancer; conditions: adult patients in complete or partial response to platinum-based chemotherapy; cited from earlier work
[5] = population pharmacokinetic analysis, all the patients in NOVA study; cited from earlier work
[6] = daily dose of 300 mg; cited from earlier work
[7] = Procedure: Six evaluable patients were enrolled in this open-label mass balance clinical study (ClinicalTrials.gov identifier NCT02476552) and were admitted to the study center for at least 10 days, with the 11th day being optional. […] From the moment of administration, all urine and faeces were collected. […] Dose reductions were allowed twice. The study was conducted in conformance with the International Conference on Harmonisation (ICH) guidelines for Good Clinical Practice (GCP) and in accordance with the Declaration of Helsinki. The protocol was approved by the Netherlands Cancer Institute Independent Ethics Committee. All patients provided written informed consent.
For the purpose of the mass balance study and metabolite profiling, urine and faecal samples were collected. Urine was collected at pre-determined intervals: pre-dose, 0–12 h, 12–24 h, 24–36 h and 36–48 h after administration. From Day 3 onwards, urine was collected over periods of 24 h. Urine was stored in polyethylene containers at 2–8 °C for the duration of the collection period. After each collection period, urine samples were mixed thoroughly, weighed, portioned into aliquots, and then frozen at ≤ − 70 °C. Separate aliquots were made in polypropylene tubes for analysis by LC-MS/MS, metabolite profiling and TRA analysis by LSC.
Faeces were collected and weighted per stool. Sample pre-treatment involved diluting and homogenising the faeces by adding water (1:3 w/v; B. Braun). A T25 basic Ultra Turrax (IKA Works, Staufen, Germany) was used to homogenise the samples before aliquoting. Urine and faeces sample collection occurred according to the following requirements: • If the total radioactivity in the Day 14 faecal/urine sample is detected to be higher than 0.1% and the total recovery of accumulative radioactivity ≤85% (faeces and urine) of the radioactivity of the dose given, faecal/urine samples will be collected every 24 h through Day 21. • If the total radioactivity in the Day 21 faecal/urine sample is detected to be higher than 0.1% and the total recovery of accumulative radioactivity ≤85% (faeces and urine), faecal/urine samples will continue to be collected every 24 h. • Faecal/urine sample collection will stop after Day 21, if the recovered radioactivity is below 1% (per 24 h) for the two consecutive days prior to Day 21 (Day 19 and Day 20). If this is not the case, collection will stop as soon as the recovered radioactivity is below 1% (per 24 h) for two consecutive days after Day 21.
TRA analysis was performed on a Liquid Scintillation Counter Tri-Carp 2910 (PerkinElmer, Groningen, The Netherlands). Aliquots of 200 μL of whole blood, plasma and faeces (all in duplicate), and 1 mL of urine (in singular) were transferred to scintillation vials. Whole blood and faecal samples needed to be moderately translucent and colourless. Therefore, 2-propanol (1 mL) was added to faecal samples to dissolve fibres, NaEDTA (0.1 mL) was added to whole blood to reduce foaming, and Solvable™ (1 mL) was added to both matrices to solubilise tissue. Hydrogen peroxide 30% (0.4 mL to faeces and 0.5 mL to whole blood) was added to reduce colour intensity. These samples were placed in a water bath (at least 40 °C; GF1086, Salm en Kipp, Breukelen, The Netherlands) to stimulate the chemical processes. Finally, 10 mL of Ultima Gold™ Cocktail (PerkinElmer) was added and the samples were analysed, either for 60 min or until the 2-sigma error was less than or equal to 5%, whichever came first. A scintillant blank was used to provide as a background sample.

[8] = plasma, single oral dose 300 mg 14C-niraparib, n = 6
[9] = % of administered dose, up to 144 h
[10] = % of administered radioactive dose, through 504 h post-dose

O=C(O)c1cccc2cn(-c3ccc([C@@H]4CCCNC4)cc3)nc12 [Compound M1, Amide hydrolysed niraparib]
Amount excreted in urine (0–144 h) [1]: 20.0%
Amount excreted total, urine and faeces (0–144 h) [1]: 22.4%
Amount excreted in faeces (0–144 h) ([1]; listed as M1 (4)): 2.4%
Amount excreted in urine (0–144 h) ([1]; listed as M1 (4)): 20%
Plasma exposure: relative AUC0-168h (% of AUC0-168h from total 14C) ([1]; listed as M1 (4)): 9.3%
Cmax [2, 8]: 476 ng/mL
AUC(0-inf) [2, 8]: 41200 ng·h/mL
AUC(0-t) [2, 8]: 40800 ng·h/mL
half-life [2, 8]: 78.4 h
Tmax [2, 8]: 9.02 h

COC(=O)c1cccc2cn(-c3ccc([C@@H]4CCCNC4)cc3)nc12 [Methylated M1 (7), Methylated M1]
Amount excreted in urine (0–144 h) [1]: not detected
Plasma exposure: relative AUC0-168h (% of AUC0-168h from total 14C) [1]: 2.5%

NC(=O)c1cccc2cn(-c3ccc([C@@H]4CCCNC4)cc3)nc12 [niraparib, 2-{4-[(3S)-piperidin-3-yl]phenyl}-2H-indazole-7-carboxamide]
Grade of AEs considered likely to be related to study treatment ([3]; NCI CTCAE): ≤ 2 grade
TEAEs leading to study drug discontinuation or death ([3]; six patients): no TEAEs led to study drug discontinuation or death
Total number of adverse events reported ([3]; six patients, single oral dose 300 mg): 21
progression-free survival (PFS) [4]: met its primary endpoint of improving progression-free survival
apparent Vd/F [5]: 1074 L
Amount excreted in faeces (0–144 h) ([1]; listed as Niraparib (5)): 18.7%
Amount excreted in urine (0–144 h) ([1]; listed as Niraparib (5)): 10.5%
Amount excreted total, urine and faeces (0–144 h) ([1]; listed as Niraparib (5)): 29.2%
Amount excreted in faeces (0–144 h) ([1]; listed as niraparib (5)): 18.7%
Amount excreted in urine (0–144 h) ([1]; listed as niraparib (5)): 10.5%
tolerability [6]: well tolerated
Vd/F ([2]; in vivo, oral, cancer patients, across the clinical studies, read-out: apparent Vd/F, collective conclusion): ≥ 1000 L
Cmax [2, 8]: 540 ng/mL
AUC(0-inf) [2, 8]: 18500 ng·h/mL
AUC(0-t) [2, 8]: 18400 ng·h/mL
Vd/F ([2]; plasma, single oral dose 300 mg 14C-niraparib, n = 6, read-out: Vd/F (mean)): 2170 L
half-life [2, 8]: 87.4 h
Tmax [2, 8]: 2.49 h
Total radioactivity recovered in excreta (urine and faeces) [7, 9]: 71.6%
Total radioactivity recovered in faeces [7, 9]: 31.6%
Total radioactivity recovered in urine [7, 9]: 40%
Mean total radioactivity recovered in excreta (urine and faeces) [7, 10]: 86.3%
Mean total radioactivity recovered in faeces [7, 10]: 38.8%
Mean total radioactivity recovered in urine [7, 10]: 47.5%
Administered dose recovered in excreta ([7]; within the first 4 days (96 h) after dosing): over 50%

M1-glucuronide [Compound M10]
Amount excreted in urine (0–144 h) [1]: 6.2%
Plasma exposure: relative AUC0-168h (% of AUC0-168h from total 14C) [1]: 55.7%

M1-glucuronide [M10 (1)]
Amount excreted in urine (0–144 h) [1]: <LLOQ
Plasma exposure: relative AUC0-168h (% of AUC0-168h from total 14C) [1]: 6.0%

M1-glucuronide [M10 (2)]
Amount excreted in urine (0–144 h) [1]: 6.2%
Amount excreted total, urine and faeces (0–144 h) [1]: 6.2%
Plasma exposure: relative AUC0-168h (% of AUC0-168h from total 14C) [1]: 26.8%

M1-glucuronide [M10 (3)]
Amount excreted in urine (0–144 h) [1]: <LLOQ
Plasma exposure: relative AUC0-168h (% of AUC0-168h from total 14C) [1]: 22.9%
